Measurements as given in patent US20250314644A1, “METHODS COMPRISING DETECTION OF ADP-HEPTOSE” (CHILDREN'S HOSPITAL MEDICAL CENTER, priority 2023, published 2025).

Columns and labels:
healthy donor cells = assay: Immunoblot of NF-κB activation in CD34+ HSPCs; format: cell-based, human
Protocol: (§1) Human CD34+ and MDS patient cells were maintained in StemSpan Serum-Free Expansion Media (Cat no. #09650, Stemcell Technologies) supplemented with 10 ng/ml of recombinant human stem cell factor (SCF) (Cat no. 300-07-50UG, PeproTech), recombinant human thrombopoietin (TPO) (Cat no. 300-18-50UG, PeproTech), recombinant human FLT3 ligand (FLT3L) (Cat no. 300-19-50UG, PeproTech), recombinant human interleukin-3 (IL-3) (Cat no. 200-03-50UG, PeproTech), and recombinant human interleukin-6 (IL-6) (Cat no. 200-06-50UG, PeproTech), as previously described. Human CD34+ cells from healthy individuals were obtained from the Yale Cooperative Center of Excellence in Hematology (YCCEH). […]
(§2) Protein concentration was evaluated by bicinchoninic acid (BCA) assay (Pierce, Cat #23225). SDS sample buffer was added to the lysates and the proteins were separated by SDS-polyacrylamide gel electrophoresis, transferred to PVDF or nitrocellulose membranes (BIO-RAD, Cat #1620112), and analyzed by immunoblotting. […] Membranes were visualized using ECL Western Blotting Substrate (Pierce, #32106) or SuperSignal West Femto Substrate (Thermo Scientific, #34096), imaged on a BIO-RAD ChemiDoc Touch Imaging system and analyzed with Image lab software 6.0.1 (Biorad) or Image J (22930834).

MDS CD34+ HSPCs = assay: Immunoblot of NF-κB activation in CD34+ HSPCs; format: cell-based, human
Protocol: as §1, §2

SMILES: Nc1ncnc2c1ncn2[C@@H]1O[C@H](COP(=O)(O)OP(=O)(O)O[C@@H]2O[C@H]([C@H](O)CO)[C@@H](O)[C@H](O)[C@@H]2O)[C@@H](O)[C@H]1O [ADP-heptose, ADP-D-glycero-β-D-manno-heptose]
- TIFA-dependent activation of NF-κB (phosphorylated IKKα/β and RelA) (healthy donor cells): not in healthy donor cells
- TIFA-dependent activation of NF-κB (phosphorylated IKKα/β and RelA) (MDS CD34+ HSPCs): able to induce TIFA-dependent activation of NF-κB
